# Experimental data taken from ChEMBL document CHEMBL1134505, “Secretase targets for Alzheimer's disease: identification and therapeutic potential” (J Med Chem, 2001).
# pIC50, pKi: −log10 of the molar value. Numbered stars: 1 amine (or outer) side, 2 acyl side, 3 side chain; on linkers, the order of the positions; unused ones are H or OH. Square brackets hold non-standard residues; d marks the D form. Peptide text beside a SMILES is read from it. * marks the point of attachment. X1 = CC(C)C[C@H](N[*:1])C(O)C[C@@H](C)C(=O)[*:2]; X2 = C[C@H](N[*:1])C(=O)C(F)(F)C(=O)[*:2]; Sta = CC(C)C[C@H](N)[C@@H](O)CC(=O)O; Nva = CCC[C@H](N)C(=O)O; Cbz = O=C(OCc1ccccc1)*; Boc = CC(C)(C)OC(=O)*
# Columns and labels:
# [1] = biological target: Gamma-secretase subunit PEN-2 (Homo sapiens, UniProt Q9NZ42); test: Inhibition of Amyloid-beta production in APP-transfected cells at level of gamma secretase; type: functional, cell-based
# Beta-secretase (BACE) [2] = biological target: T1, Beta-secretase (BACE) (Homo sapiens, UniProt Q9Y5Z0+P56817); test: Inhibition of beta-secretase activity; type: protein assay
# Beta-secretase (BACE) [3] = biological target: T1, Beta-secretase (BACE); test: In vitro inhibition of beta-secretase was evaluated; type: protein assay
# Beta-secretase 1 = Beta-secretase 1 (Homo sapiens, UniProt P56817); test: Inhibition of human recombinant beta-secretase
# Sequence of Beta-secretase 1 (P56817 whole entry): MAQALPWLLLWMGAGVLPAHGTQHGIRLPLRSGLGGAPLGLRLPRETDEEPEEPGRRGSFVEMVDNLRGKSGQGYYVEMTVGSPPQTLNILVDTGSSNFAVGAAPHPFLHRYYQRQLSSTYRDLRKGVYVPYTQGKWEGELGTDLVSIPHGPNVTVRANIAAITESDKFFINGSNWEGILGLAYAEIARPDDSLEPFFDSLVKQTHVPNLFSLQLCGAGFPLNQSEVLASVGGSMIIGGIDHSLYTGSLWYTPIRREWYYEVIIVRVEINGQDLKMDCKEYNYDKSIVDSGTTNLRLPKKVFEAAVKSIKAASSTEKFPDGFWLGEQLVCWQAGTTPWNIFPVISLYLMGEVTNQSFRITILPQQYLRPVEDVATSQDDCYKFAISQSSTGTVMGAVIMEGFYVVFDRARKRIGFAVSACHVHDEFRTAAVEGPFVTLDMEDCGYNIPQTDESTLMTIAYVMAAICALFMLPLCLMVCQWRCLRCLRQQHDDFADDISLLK
# Sequence of Gamma-secretase subunit PEN-2 (Q9NZ42 whole entry): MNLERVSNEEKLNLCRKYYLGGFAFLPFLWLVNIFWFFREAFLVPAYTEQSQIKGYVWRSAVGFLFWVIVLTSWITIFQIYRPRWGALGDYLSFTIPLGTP
pIC50 [1],SMILES,also measured
3.70,CC(C)C[C@@H](C=O)NC(=O)[C@H](CC(C)C)NC(=O)[C@H](CC(C)C)NC(=O)OCc1ccccc1 [MG-132] (Cbz-Leu-Leu-Leu-aldehyde),–
–,CC(C)C[C@H](NC(=O)[C@H](Cc1ccccc1)C[C@@H](O)[C@H](Cc1ccccc1)NC(=O)OC(C)(C)C)C(=O)N[C@@H](Cc1ccccc1)C(N)=O,IC50 (Beta-secretase (BACE) [2]): 0.3 µM
3.70,CCC[C@@H](C=O)NC(=O)[C@H](CC(C)C)NC(=O)[C@H](CC(C)C)NC(C)=O (Ac-Leu-Leu-[Nva]-aldehyde),–
4.89,CC[C@H](C)[C@H](NC(=O)[C@@H](NC(=O)OC(C)(C)C)C(C)C)C(=O)N[C@@H](C)C(=O)C(F)(F)C(=O)N[C@H](C(=O)N[C@H](C(=O)OC)[C@@H](C)CC)C(C)C (Boc-VI[X2]VI-OMe),–
3.70,CCC[C@@H](C=O)NC(=O)[C@H](CC(C)C)NC(=O)OCc1ccccc1 (Cbz-Leu-[Nva]-aldehyde),–
–,CC[C@H](C)[C@H](NC(=O)[C@H](CCC(=O)O)NC(=O)[C@H](CCC(=O)O)NC(=O)[C@@H](NC(=O)[C@@H](N)CCCCN)[C@@H](C)O)C(=O)N[C@@H](CO)C(=O)N[C@@H](CCC(=O)O)C(=O)N[C@H](C(=O)N[C@@H](CC(N)=O)C(=O)N[C@@H](CC(C)C)[C@@H](O)CC(=O)N[C@H](C(=O)N[C@@H](C)C(=O)N[C@@H](CCC(=O)O)C(=O)N[C@@H](Cc1ccccc1)C(=O)O)C(C)C)C(C)C (H-KTEEISEVN[Sta]VAEF-OH),IC50 (Beta-secretase (BACE) [3]): 0.03 µM
–,CC(C)C[C@H](NC(=O)[C@H](CC(N)=O)NC(=O)[C@@H](NC(=O)[C@@H](N)CC(=O)O)C(C)C)C(O)C[C@@H](C)C(=O)N[C@@H](C)C(=O)N[C@@H](CCC(=O)O)C(=O)N[C@@H](Cc1ccccc1)C(=O)O (stereo partly drawn) (H-DVN[X1]AEF-OH),pKi (Beta-secretase 1): 8.00
–,CC(C)C[C@H](NC(=O)[C@H](CC(N)=O)NC(=O)[C@@H](N)C(C)C)C(O)C[C@@H](C)C(=O)N[C@@H](C)C(=O)N[C@@H](CCC(=O)O)C(=O)N[C@@H](Cc1ccccc1)C(=O)O (stereo partly drawn) (H-VN[X1]AEF-OH),pKi (Beta-secretase 1): 7.17
